Measured values from paper PMC4893804 (Journal of medicinal chemistry, 2015).

Tests used:
[1] = test system: human DNA polymerases α and β; test: Human DNA polymerase α and β assays, pooled statements in text; assay type: biochemical
[2] = test system: herpetic DNA polymerases (HCMV, HSV-1, VZV); test: Herpetic DNA polymerase assays, pooled statements in text; assay type: biochemical
[3] = target: HIV-1 RT (Human immunodeficiency virus type 1 group M subtype B, UniProt P03366); test: HIV-1 reverse transcriptase assay with homopolymeric template/primers; assay type: biochemical
[4] = target: Y115F HIV-1 RT (Human immunodeficiency virus type 1 group M subtype B, UniProt P03366, Y714F); test: Mutant HIV-1 RT assay
[5] = target: HSV-1 DNA polymerase (Human herpesvirus 1, UniProt P04293); test: Enzyme assay with HSV-1 DNA polymerase; assay type: biochemical
Chain of HSV-1 DNA polymerase (P04293 whole entry): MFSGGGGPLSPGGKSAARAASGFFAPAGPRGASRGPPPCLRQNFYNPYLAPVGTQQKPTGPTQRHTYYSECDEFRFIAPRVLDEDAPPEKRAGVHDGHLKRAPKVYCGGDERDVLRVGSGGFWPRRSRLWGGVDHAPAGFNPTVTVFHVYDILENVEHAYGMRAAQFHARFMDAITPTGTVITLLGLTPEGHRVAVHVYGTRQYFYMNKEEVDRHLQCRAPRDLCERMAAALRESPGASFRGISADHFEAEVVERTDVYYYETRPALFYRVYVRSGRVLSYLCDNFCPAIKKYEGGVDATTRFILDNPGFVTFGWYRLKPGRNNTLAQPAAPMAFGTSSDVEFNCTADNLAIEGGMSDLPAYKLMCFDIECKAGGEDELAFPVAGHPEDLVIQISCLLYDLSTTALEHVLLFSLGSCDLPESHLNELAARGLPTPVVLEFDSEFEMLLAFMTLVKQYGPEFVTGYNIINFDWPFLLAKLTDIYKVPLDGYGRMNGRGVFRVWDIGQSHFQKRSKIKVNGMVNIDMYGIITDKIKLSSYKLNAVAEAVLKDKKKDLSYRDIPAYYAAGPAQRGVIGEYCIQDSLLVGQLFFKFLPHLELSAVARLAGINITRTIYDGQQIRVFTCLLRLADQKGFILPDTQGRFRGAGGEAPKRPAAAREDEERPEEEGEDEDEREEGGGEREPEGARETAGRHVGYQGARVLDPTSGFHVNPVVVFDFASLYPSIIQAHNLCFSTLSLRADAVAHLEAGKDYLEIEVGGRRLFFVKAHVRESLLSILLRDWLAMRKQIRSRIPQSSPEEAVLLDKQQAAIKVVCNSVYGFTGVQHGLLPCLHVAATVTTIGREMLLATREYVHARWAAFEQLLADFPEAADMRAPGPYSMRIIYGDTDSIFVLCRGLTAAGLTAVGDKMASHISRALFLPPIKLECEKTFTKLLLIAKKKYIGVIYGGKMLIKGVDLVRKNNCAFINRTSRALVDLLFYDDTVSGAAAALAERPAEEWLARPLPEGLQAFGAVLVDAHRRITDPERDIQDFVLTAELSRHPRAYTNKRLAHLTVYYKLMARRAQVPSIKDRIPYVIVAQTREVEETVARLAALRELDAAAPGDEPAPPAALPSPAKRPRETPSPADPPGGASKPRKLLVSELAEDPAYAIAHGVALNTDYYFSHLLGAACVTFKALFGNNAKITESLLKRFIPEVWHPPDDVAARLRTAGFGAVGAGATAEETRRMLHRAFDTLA

[6] = target: bacteriophage RB69 DNA polymerase gp43 (WT) (Escherichia phage RB69, UniProt Q38087, D222A/D327A); test: biochemical
Chain of bacteriophage RB69 DNA polymerase gp43 (WT) (Q38087 whole entry D222A/D327A): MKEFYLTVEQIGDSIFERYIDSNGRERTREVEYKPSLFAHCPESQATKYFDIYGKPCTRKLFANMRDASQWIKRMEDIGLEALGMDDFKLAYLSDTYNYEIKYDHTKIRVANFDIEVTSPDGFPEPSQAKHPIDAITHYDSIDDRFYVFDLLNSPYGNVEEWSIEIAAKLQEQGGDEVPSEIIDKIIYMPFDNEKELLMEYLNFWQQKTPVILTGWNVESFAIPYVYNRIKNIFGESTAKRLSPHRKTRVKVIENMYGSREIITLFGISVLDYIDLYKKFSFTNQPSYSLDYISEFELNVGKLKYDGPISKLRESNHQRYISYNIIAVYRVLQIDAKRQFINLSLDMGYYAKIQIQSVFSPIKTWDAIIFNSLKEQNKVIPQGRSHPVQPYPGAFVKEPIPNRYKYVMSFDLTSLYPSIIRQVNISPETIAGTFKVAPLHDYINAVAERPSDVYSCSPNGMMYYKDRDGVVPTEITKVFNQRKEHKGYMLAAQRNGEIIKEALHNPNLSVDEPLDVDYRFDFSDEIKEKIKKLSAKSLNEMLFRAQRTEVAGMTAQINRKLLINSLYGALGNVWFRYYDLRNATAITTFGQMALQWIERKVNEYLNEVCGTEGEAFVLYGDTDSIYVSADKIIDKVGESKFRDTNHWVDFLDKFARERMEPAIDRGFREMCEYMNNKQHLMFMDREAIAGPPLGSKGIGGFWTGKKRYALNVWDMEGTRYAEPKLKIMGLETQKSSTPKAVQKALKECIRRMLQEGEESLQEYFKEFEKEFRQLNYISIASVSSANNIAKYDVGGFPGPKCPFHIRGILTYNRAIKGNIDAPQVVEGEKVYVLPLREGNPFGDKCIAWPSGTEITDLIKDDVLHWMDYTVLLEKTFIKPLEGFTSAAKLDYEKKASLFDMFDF

[7] = target: VZV DNA polymerase (Varicella-zoster virus, UniProt P09252); test: Enzyme assay with VZV DNA polymerase; assay type: biochemical
Chain of VZV DNA polymerase (P09252 whole entry): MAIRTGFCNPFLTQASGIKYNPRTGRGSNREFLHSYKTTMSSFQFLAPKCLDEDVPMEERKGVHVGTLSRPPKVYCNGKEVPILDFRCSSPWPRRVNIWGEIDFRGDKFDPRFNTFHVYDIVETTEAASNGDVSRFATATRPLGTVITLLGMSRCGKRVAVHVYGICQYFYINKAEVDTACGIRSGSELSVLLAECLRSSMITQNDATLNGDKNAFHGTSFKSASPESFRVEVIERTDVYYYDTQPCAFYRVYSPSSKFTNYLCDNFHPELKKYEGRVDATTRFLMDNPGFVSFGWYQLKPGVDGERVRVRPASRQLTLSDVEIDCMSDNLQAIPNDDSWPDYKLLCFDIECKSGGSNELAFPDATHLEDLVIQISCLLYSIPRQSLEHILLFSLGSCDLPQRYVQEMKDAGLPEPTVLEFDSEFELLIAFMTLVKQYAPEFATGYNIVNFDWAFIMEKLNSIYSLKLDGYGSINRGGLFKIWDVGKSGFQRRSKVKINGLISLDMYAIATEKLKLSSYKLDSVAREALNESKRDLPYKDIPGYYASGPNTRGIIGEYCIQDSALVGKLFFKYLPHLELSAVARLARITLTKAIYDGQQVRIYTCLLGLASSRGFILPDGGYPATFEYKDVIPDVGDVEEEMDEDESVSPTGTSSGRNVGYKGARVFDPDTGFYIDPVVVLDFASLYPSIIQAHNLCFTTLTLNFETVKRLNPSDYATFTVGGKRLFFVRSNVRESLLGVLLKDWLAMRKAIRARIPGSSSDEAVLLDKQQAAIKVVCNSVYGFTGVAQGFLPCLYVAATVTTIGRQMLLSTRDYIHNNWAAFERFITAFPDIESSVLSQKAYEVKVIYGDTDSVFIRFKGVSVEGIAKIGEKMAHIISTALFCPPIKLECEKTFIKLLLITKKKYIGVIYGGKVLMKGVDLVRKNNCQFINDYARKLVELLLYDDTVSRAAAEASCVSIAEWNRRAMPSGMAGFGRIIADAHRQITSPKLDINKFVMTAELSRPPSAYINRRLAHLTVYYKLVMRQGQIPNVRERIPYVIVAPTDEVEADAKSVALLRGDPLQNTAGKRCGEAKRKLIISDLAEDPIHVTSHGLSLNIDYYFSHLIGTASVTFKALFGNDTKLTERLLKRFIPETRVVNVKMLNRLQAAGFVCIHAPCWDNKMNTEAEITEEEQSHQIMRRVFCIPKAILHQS

[8] = target: M184I HIV-1 RT (Human immunodeficiency virus type 1 group M subtype B, UniProt P03366, M783I); test: Mutant HIV-1 RT assay
[9] = target: Human DNA Pol β (Homo sapiens, UniProt P06746); test: Enzyme assay with human DNA polymerase β; assay type: biochemical
[10] = target: T1, Human DNA Pol α (Homo sapiens, UniProt P09884); test: Enzyme assay with human DNA polymerase α; assay type: biochemical
T1 sequence (P09884 1-1462): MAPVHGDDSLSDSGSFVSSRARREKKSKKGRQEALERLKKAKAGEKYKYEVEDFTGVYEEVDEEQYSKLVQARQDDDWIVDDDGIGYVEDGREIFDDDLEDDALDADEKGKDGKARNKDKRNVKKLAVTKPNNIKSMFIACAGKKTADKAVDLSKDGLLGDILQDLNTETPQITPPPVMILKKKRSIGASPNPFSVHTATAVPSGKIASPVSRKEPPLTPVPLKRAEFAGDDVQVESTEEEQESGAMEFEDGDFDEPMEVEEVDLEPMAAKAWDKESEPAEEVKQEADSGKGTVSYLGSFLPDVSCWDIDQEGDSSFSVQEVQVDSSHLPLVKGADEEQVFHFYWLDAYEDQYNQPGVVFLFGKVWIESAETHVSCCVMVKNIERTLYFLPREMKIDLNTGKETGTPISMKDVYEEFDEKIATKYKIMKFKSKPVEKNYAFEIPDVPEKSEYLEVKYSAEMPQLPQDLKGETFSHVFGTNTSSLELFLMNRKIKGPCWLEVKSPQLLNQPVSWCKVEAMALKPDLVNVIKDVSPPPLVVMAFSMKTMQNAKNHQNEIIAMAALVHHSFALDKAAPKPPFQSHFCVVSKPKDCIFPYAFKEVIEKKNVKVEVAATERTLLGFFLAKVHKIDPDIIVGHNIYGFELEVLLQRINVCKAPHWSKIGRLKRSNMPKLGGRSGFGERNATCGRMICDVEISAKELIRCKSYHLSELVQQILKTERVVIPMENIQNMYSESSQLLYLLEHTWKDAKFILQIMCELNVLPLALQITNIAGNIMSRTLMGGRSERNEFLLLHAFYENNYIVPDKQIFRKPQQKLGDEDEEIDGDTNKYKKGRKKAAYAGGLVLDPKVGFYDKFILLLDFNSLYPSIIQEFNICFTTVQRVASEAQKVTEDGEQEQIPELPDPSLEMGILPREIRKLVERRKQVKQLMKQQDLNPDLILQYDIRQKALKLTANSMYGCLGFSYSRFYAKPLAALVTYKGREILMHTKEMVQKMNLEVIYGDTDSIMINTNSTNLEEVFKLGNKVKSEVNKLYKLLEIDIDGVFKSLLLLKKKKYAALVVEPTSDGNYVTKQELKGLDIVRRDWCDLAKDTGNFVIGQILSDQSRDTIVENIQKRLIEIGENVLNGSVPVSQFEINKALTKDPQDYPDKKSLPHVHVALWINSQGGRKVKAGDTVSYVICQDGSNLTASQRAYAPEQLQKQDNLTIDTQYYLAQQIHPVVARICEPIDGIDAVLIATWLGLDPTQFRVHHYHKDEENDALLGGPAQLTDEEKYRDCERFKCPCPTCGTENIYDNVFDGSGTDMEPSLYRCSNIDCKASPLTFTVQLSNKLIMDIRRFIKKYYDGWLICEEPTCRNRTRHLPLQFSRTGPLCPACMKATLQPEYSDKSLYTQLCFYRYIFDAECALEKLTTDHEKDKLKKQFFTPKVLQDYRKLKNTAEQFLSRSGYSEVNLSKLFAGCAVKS

[11] = target: T2, RB69/ABC5 hybrid DNA polymerase (Escherichia phage RB69, UniProt Q38087, D222A/D327A/F479V/I557M/L561V/L562T/N480A/N558A/R559L/V478W); test: biochemical; design: species or system bacteriophage RB69 / HCMV
T2 sequence (Q38087 whole entry D222A/D327A/V478W/F479V/N480A/I557M/N558A/R559L/L561V/L562T): as the sequence (Q38087 whole entry D222A/D327A) above, with V478W, F479V, N480A, I557M, N558A, R559L, L561V, L562T counted along it

[12] = target: T2, RB69/ABC5 hybrid DNA polymerase; conditions: cited from earlier work
[13] = target: HCMV DNA polymerase (UL54) (Human cytomegalovirus, UniProt P08546); test: Enzyme assay with HCMV DNA polymerase; assay type: biochemical; conditions: IC50 HCMV DNA Pol, activated calf thymus DNA, [3H]dTTP
Chain of HCMV DNA polymerase (UL54) (P08546 whole entry): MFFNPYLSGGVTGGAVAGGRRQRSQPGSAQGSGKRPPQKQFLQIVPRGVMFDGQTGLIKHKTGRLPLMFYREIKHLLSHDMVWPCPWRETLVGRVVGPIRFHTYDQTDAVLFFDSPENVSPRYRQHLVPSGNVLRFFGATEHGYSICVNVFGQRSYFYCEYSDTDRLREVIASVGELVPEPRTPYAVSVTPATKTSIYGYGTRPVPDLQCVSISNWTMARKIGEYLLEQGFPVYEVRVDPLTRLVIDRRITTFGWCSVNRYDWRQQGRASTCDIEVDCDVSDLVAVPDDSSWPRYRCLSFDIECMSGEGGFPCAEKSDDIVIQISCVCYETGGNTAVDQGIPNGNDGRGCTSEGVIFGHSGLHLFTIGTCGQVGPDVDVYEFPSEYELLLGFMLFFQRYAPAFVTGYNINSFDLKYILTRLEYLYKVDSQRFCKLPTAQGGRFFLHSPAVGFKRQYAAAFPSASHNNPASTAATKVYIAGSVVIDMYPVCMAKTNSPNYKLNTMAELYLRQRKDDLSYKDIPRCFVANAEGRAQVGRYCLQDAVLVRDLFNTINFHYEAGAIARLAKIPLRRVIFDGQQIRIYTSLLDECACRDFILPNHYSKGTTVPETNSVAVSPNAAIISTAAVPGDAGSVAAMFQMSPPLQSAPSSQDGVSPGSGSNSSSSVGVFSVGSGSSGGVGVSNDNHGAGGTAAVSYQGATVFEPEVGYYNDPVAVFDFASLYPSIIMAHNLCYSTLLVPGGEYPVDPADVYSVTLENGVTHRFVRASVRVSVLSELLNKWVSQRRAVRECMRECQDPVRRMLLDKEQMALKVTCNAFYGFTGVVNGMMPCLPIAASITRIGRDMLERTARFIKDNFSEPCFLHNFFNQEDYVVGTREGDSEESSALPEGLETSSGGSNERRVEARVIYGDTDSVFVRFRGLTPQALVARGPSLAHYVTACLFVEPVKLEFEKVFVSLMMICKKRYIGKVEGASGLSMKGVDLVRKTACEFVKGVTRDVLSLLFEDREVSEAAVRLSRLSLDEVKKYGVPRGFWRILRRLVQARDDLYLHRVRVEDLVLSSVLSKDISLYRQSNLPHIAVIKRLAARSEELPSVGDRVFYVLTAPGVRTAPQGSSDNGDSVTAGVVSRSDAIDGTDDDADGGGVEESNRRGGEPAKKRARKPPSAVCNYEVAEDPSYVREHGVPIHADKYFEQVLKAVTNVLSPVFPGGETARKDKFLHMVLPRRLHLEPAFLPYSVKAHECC

[14] = IC50 HIV-1 RT Poly rA.dT ([3H]dTTP), Table 7, Poly rA.dT, [3H]dTTP
[15] = IC50 HIV-1 RT Poly rC.dG ([3H]dGTP), Poly rC.dG, [3H]dGTP
[16] = IC50 HIV-1 RT Poly rI.dC ([3H]dCTP), Poly rI.dC, [3H]dCTP
[17] = IC50 HIV-1 RT Poly rU.dA ([3H]dATP), Poly rU.dA, [3H]dATP
[18] = IC50 HIV-1 RT, poly rA.dT template/primer, [3H]dTTP
[19] = IC50 Wild-type HIV-1 RT, Table 8, wild-type RT

Row | SMILES | inhibitory activity against human DNA polymerases (in words) [1] | inhibitory activity against herpetic DNA polymerases (in words) [2] | IC50 [4] [µM] | IC50 [5] [µM] | IC50 [7] [µM] | IC50 [8] [µM] | IC50 [9] [µM] | IC50 [10] [µM] | IC50 [3, 14] [µM] | IC50 [3, 15] [µM] | IC50 [3, 16] [µM] | IC50 [3, 17] [µM] | IC50 [3, 18] [µM] | IC50 [3, 19] [µM] | sensitivity of chimera RB69/ABC5 to active-site inhibitors [12] | IC50 [13] [µM] | also measured
1 | O=C(O)C(OC/C=C\CO)P(=O)(O)O (stereo not drawn) [Compound 6n, 2-Cis-((4-hydroxybut-2-en-1-yl)oxy)-2-phosphonoacetic acid] | insensitive | insensitive |  |  |  |  |  |  |  |  |  |  |  |  |  |  | inhibitory activity against HIV-1 RT (in words) [3]: insensitive
2 | Cc1cn(C/C=C\COC(C(=O)O)P(=O)(O)O)c(=O)[nH]c1=O (stereo not drawn) [Compound 6g, cis-2-(4-(2,4-Dioxo-5-methyl-pyrimidin-1-yl)but-2-enyloxy)-2-phosphonoacetic acid] |  |  | 655 ± 409 | 3.7 ± 1.7 | 2.2 ± 0.1 | > 2500 | > 500 | 14 ± 7 | 235 ± 16 | > 500 | > 500 | ≥ 500 | 235 ± 16 | 320 ± 89 |  |  | IC50 [6]: > 100 µM; selectivity for herpetic DNA polymerases compared to human DNA polymerase α ([2]; herpetic vs human DNA polymerase α): 4- to 7 fold; higher potency against herpetic DNA polymerases compared to butyl analogue 6h ([2]; ratio vs 6h): 8- to 20 fold; superior activity against herpetic DNA polymerases than against HIV-1 RT ([2]; selectivity herpetic over HIV-1 RT): ~ 100 fold; IC50 [11]: > 100 µM; loss of anti-HIV-1 RT activity compared to prototype thymine-α-CNP ([3]; ratio of IC50 vs thymine-α-CNP): ~ 600 fold
3 | O=C(O)P(=O)(O)O [PFA, phosphonoformic acid, reference compound] |  |  |  | 0.44 ± 0.25 |  |  | > 100 | 7.7 ± 6.5 |  |  |  |  |  |  | sensitive | 9.8 ± 5.8 | IC50 ([3]; IC50 HIV-1 RT): 0.34 ± 0.01 µM; IC50 ([3]; IC50 HIV-1 RT Poly rA.dT ([3H]dTTP)): 0.34 ± 0.01 µM; IC50 ([3]; IC50 HIV-1 RT Poly rC.dG ([3H]dGTP)): 17 ± 2 µM; IC50 ([3]; IC50 HIV-1 RT Poly rI.dC ([3H]dCTP)): 6.8 ± 2 µM; IC50 ([3]; IC50 HIV-1 RT Poly rU.dA ([3H]dATP)): 0.75 ± 0.13 µM
4 | Cc1cn(C[C@@H]2CCC[C@H]2COC(C(=O)O)P(=O)(O)O)c(=O)[nH]c1=O (relative stereo) [Compound 6o] | poor, if any, inhibitory activity | poor, if any, inhibitory activity |  |  |  |  |  |  |  |  |  |  |  |  |  |  | 
5 | Nc1nc2c(ncn2COCCOP(=O)(O)OP(=O)(O)OP(=O)(O)O)c(=O)[nH]1 [acyclovir triphosphate] |  |  |  |  |  |  |  |  |  |  |  |  |  |  | sensitive |  | 
6 | Nc1nc2c(ncn2C/C=C\COC(C(=O)O)P(=O)(O)O)c(=O)[nH]1 (stereo not drawn) [Compound 6l, 2-Cis-(4-(2-amino-6-oxo-1H-purin-9(6H)-yl)but-2-enyloxy)-2-phosphonoacetic acid] |  |  | ≥ 1250 | 2.1 ± 2.3 | 2.9 | > 1250 | > 500 | 365 ± 91 | ≥ 500 | > 500 | > 500 | 369 ± 48 | ≥ 500 | ≥ 1250 |  | 3.6 ± 0.6 | 
